Data: patent publication US11780826B2 (Amgen Inc., priority 2017, dated 2023)

System: Bovine cardiac myofibrils
Test: In vitro model of dose-dependent myofibril ATPase modulation (AC1.4, pyruvate kinase/lactate dehydrogenase-coupled ATPase assay at pCa25)
Type: biochemical
Settings: concentration at which ATPase activity was 1.4-fold higher than the bottom of the dose curve, mean of a minimum of two independent tests
Procedure, shortened: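 Coupled-enzyme ATPase on bovine heart myofibrils, 1 mM ATP, EGTA/CaCl2 buffered; 340 nm readout.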

Row | AC1.4 | SMILES
1 | 0.5241 µM | O=C(N[C@@H](c1cc(F)c(Cl)cc1F)C1COC1)[C@H]1C[C@H]2C[C@H]2N1C(=O)c1cc(C(F)(F)F)ccn1 [Example 233, (1R,3R,5R)-N-((R)-(4-chloro-2,5-difluorophenyl)(3-oxetanyl)methyl)-2-((4-(trifluoromethyl)-2-pyridinyl)carbonyl)-2-azabicyclo[3.1.0]hexane-3-carboxamide]
2 | 0.5321 µM | CC1(C)CN(S(=O)(=O)c2cccc(C(=O)N3CCC[C@@H]3C(=O)NCc3ccc(C(F)(F)F)cc3)c2)C1 [Example 234, 1-((3-((3,3-dimethyl-1-azetidinyl)sulfonyl)phenyl)carbonyl)-N-(4-(trifluoromethyl)benzyl)-D-prolinamide]
3 | 0.5579 µM | CS(=O)(=O)c1cncc(C(=O)N2CC[C@H](C(F)(F)F)[C@H]2C(=O)N[C@@H](c2cc(F)c(C(F)(F)F)cc2F)C2CC2)c1 [Example 236, (3S)-N-((R)-cyclopropyl(2,5-difluoro-4-(trifluoromethyl)phenyl)methyl)-1-((5-(methylsulfonyl)-3-pyridinyl)carbonyl)-3-(trifluoromethyl)-L-prolinamide]
4 | 0.5593 µM | O=C(NCc1ccc(C(F)(F)F)cc1F)[C@H]1CCCN1C(=O)[C@H]1CCCN(S(=O)(=O)N2CC(OCCF)C2)C1 [Example 237, 1-(((3S)-1-((3-(2-fluoroethoxy)-1-azetidinyl)sulfonyl)-3-piperidinyl)carbonyl)-N-(2-fluoro-4-(trifluoromethyl)benzyl)-D-prolinamide]
5 | 0.5606 µM | O=C(NCc1ccc(Cl)c(F)c1)[C@H]1CCCN1C(=O)c1cccc(S(=O)(=O)N2CC(F)(F)C2)c1 [Example 238, N-(4-chloro-3-fluorobenzyl)-1-(3-((3,3-difluoro-1-azetidinyl)sulfonyl)benzoyl)-D-prolinamide]
6 | 0.5676 µM | N#CC1CN(S(=O)(=O)N2CCN[C@H](C(=O)N3CCC[C@@H]3C(=O)NCc3ccc(C(F)(F)F)cc3)C2)C1 [Example 239, 1-(((2S)-4-((3-cyano-1-azetidinyl)sulfonyl)-2-piperazinyl)carbonyl)-N-(4-(trifluoromethyl)benzyl)-D-prolinamide]
7 | 0.5685 µM | N#CC1CN(S(=O)(=O)N2CCC[C@H](C(=O)N3C[C@H](O)C[C@@H]3C(=O)NCc3ccc(C(F)(F)F)cc3)C2)C1 [Example 240, (2R,4R)-1-((S)-1-((3-cyanoazetidin-1-yl)sulfonyl)piperidine-3-carbonyl)-4-hydroxy-N-(4-(trifluoromethyl)benzyl)pyrrolidine-2-carboxamide]
8 | 0.5692 µM | CS(=O)(=O)c1cncc(C(=O)N2CCC(C(F)(F)F)C2C(=O)N[C@@H](c2cc(F)c(C(F)(F)F)cc2F)C2CC2)c1 (stereo partly drawn) [Example 241, N-((R)-cyclopropyl(2,5-difluoro-4-(trifluoromethyl)phenyl)methyl)-1-(5-(methylsulfonyl)nicotinoyl)-3-(trifluoromethyl)pyrrolidine-2-carboxamide]
9 | 0.573 µM | COc1cccc2c1CCC2NC(=O)[C@H]1CCCN1C(=O)[C@H]1CCCN(S(=O)(=O)N2CC(C#N)C2)C1 (stereo partly drawn) [Example 242, (2R)-1-((S)-1-((3-cyanoazetidin-1-yl)sulfonyl)piperidine-3-carbonyl)-N-(4-methoxy-2,3-dihydro-1H-inden-1-yl)pyrrolidine-2-carboxamide]
10 | 0.5746 µM | Cc1ccc(CNC(=O)[C@H]2CCCN2C(=O)[C@H]2CCCN(S(=O)(=O)N3CC(C#N)C3)C2)cc1 [Example 243, 1-(((3S)-1-((3-cyano-1-azetidinyl)sulfonyl)-3-piperidinyl)carbonyl)-N-(4-methylbenzyl)-D-prolinamide]
11 | 0.5793 µM | CS(=O)(=O)c1cccc(C(=O)N2[C@@H](C(=O)NC(c3ccc(C(F)(F)F)cc3F)C3CNC(=O)C3)C[C@H]3C[C@H]32)c1 (stereo partly drawn) [Example 244, (1R,3R,5R)-N-((2-fluoro-4-(trifluoromethyl)phenyl)(5-oxopyrrolidin-3-yl)methyl)-2-(3-(methylsulfonyl)benzoyl)-2-azabicyclo[3.1.0]hexane-3-carboxamide]
12 | 0.582 µM | CC[C@@H](NC(=O)[C@H]1CCCN1C(=O)[C@H]1CCCN(S(=O)(=O)N2CC(C#N)C2)C1)c1cc(F)cc(F)c1 [Example 245, 1-(((3S)-1-((3-cyano-1-azetidinyl)sulfonyl)-3-piperidinyl)carbonyl)-N-((1R)-1-(3,5-difluorophenyl)propyl)-D-prolinamide]

The remaining lines, values behind:

Row | SMILES | AC1.4
13 | N#CC1CN(S(=O)(=O)N2CCC[C@H](C(=O)N3C[C@H](F)C[C@@H]3C(=O)NCc3ccc(C(F)(F)F)cc3)C2)C1 [Example 216, (4R)-1-(((3S)-1-((3-cyano-1-azetidinyl)sulfonyl)-3-piperidinyl)carbonyl)-4-fluoro-N-(4-(trifluoromethyl)benzyl)-D-prolinamide] | 0.4746 µM
14 | CCNc1ccccc1C(=O)N1[C@@H](C(=O)N[C@@H](c2ccc(C(F)(F)F)cc2F)C2COC2)C[C@H]2C[C@H]21 [Example 217, (1R,3R,5R)-2-(2-(ethylamrno)benzoyl)-N-((R)-(2-fluoro-4-(trifluoromethyl)phenyl)(3-oxetanyl)methyl)-2-azabicyclo[3.1.0]hexane-3-carboxamide] | 0.4751 µM
15 | CS(=O)(=O)c1cc(F)cc(C(=O)N2[C@@H](C(=O)N[C@@H](c3ccc(C(F)(F)F)cc3F)C3COC3)C[C@H]3C[C@H]32)c1 [Example 219, (1R,3R,5R)-2-(3-fluoro-5-(methylsulfonyl)benzoyl)-N-((R)-(2-fluoro-4-(trifluoromethyl)phenyl)(3-oxetanyl)methyl)-2-azabicyclo[3.1.0]hexane-3-carboxamide] | 0.4808 µM
16 | CC(C)[C@H](NC(=O)[C@H]1CCCN1C(=O)c1cccc(S(=O)(=O)N2CC(C#N)C2)c1)c1ccc(C(F)(F)F)cc1F [Example 220, 1-(3-((3-cyano-1-azetidinyl)sulfonyl)benzoyl)-N-((1S)-1-(2-fluoro-4-(trifluoromethyl)phenyl)-2-methylpropyl)-D-prolinamide] | 0.4809 µM
17 | N#CC1CN(S(=O)(=O)N2CCC[C@H](C(=O)N3CCC[C@@H]3C(=O)NCc3ccc(F)c(F)c3)C2)C1 [Example 221, 1-(((3S)-1-((3-cyano-1-azetidinyl)sulfonyl)-3-piperidinyl)carbonyl)-N-(3,4-difluorobenzyl)-D-prolinamide] | 0.4821 µM
18 | CS(=O)(=O)c1ccnc(C(=O)N2CCC[C@@H]2C(=O)N[C@@H](c2cc(F)c(Cl)cc2F)C2CC2)c1 [Example 222, N-((R)-(4-chloro-2,5-difluorophenyl)(cyclopropyl)methyl)-1-((4-(methylsulfonyl)-2-pyridinyl)carbonyl)-D-prolinamide] | 0.4825 µM
19 | O=C(N[C@@H](c1ccc(C(F)(F)F)cc1F)C1CC1)[C@H]1CCCN1C(=O)c1cccc(S(=O)(=O)C2CC2)c1 [Example 223, N-((R)-cyclopropyl(2-fluoro-4-(trifluoromethyl)phenyl)methyl)-1-(3-(cyclopropylsulfonyl)benzoyl)-D-prolinamide] | 0.4842 µM
20 | NS(=O)(=O)c1cccc(C(=O)N2CCC[C@@H]2C(=O)N[C@@H](c2cc(F)c(Cl)cc2F)C2CC2)c1 [Example 224, N-((R)-(4-chloro-2,5-difluorophenyl)(cyclopropyl)methyl)-1-(3-sulfamoylbenzoyl)-D-prolinamide] | 0.485 µM
21 | O=C(N[C@@H](c1cc(F)c(C(F)(F)F)cc1F)C1CC1)[C@H]1C[C@H]2C[C@H]2N1C(=O)c1ccnc(C(F)(F)F)c1 [Example 225, (1R,3R,5R)-N-((R)-cyclopropyl(2,5-difluoro-4-(trifluoromethyl)phenyl)methyl)-2-((2-(trifluoromethyl)-4-pyridinyl)carbonyl)-2-azabicyclo[3.1.0]hexane-3-carboxamide] | 0.4889 µM
22 | O=C(NCc1ccc(C(F)(F)F)cc1)[C@H]1CCCN1C(=O)[C@H]1CCCN(S(=O)(=O)N2CC(c3ccon3)C2)C1 [Example 227, 1-(((3S)-1-((3-(1,2-oxazol-3-yl)-1-azetidinyl)sulfonyl)-3-piperidinyl)carbonyl)-N-(4-(trifluoromethyl)benzyl)-D-prolinamide] | 0.4927 µM
23 | CNc1ccc(S(C)(=O)=O)cc1C(=O)N1CCC[C@@H]1C(=O)N[C@@H](c1ccc(C(F)(F)F)cc1F)C1CC1 [Example 228, N-((R)-cyclopropyl(2-fluoro-4-(trifluoromethyl)phenyl)methyl)-1-(2-(methylamino)-5-(methylsulfonyl)benzoyl)-D-prolinamide] | 0.4974 µM
24 | CC(C)[C@H](NC(=O)[C@H]1CCCN1C(=O)[C@H]1CCCN(S(=O)(=O)N2CC(C#N)C2)C1)c1ccc(C(F)(F)F)cc1F [Example 229, 1-(((3S)-1-((3-cyano-1-azetidinyl)sulfonyl)-3-piperidinyl)carbonyl)-N-((1S)-1-(2-fluoro-4-(trifluoromethyl)phenyl)-2-methylpropyl)-D-prolinamide] | 0.5053 µM
25 | Cc1cc(C(=O)N2[C@@H](C(=O)N[C@@H](c3ccc(C(F)(F)F)cc3F)C3CC3)C[C@H]3C[C@H]32)c(NC2CCC2)cn1 [Example 230, (1R,3R,5R)-2-((5-(cyclobutylamino)-2-methyl-4-pyridinyl)carbonyl)-N-((R)-cyclopropyl(2-fluoro-4-(trifluoromethyl)phenyl)methyl)-2-azabicyclo[3.1.0]hexane-3-carboxamide] | 0.5074 µM
26 | O=C(N[C@@H](c1cc(F)c(Cl)cc1F)C1CC1)[C@H]1C[C@H]2C[C@H]2N1C(=O)c1ccnc(C(F)(F)F)c1 [Example 231, (1R,3R,5R)-N-((R)-(4-chloro-2,5-difluorophenyl)(cyclopropyl)methyl)-2-((2-(trifluoromethyl)-4-pyridinyl)carbonyl)-2-azabicyclo[3.1.0]hexane-3-carboxamide] | 0.5188 µM
27 | CS(=O)(=O)c1cccc(C(=O)N2CCC[C@@H]2C(=O)N[C@@H](c2ccc(C(F)(F)F)cc2F)C2COC2)c1 [Example 232, N-((R)-(2-fluoro-4-(trifluoromethyl)phenyl)(3-oxetanyl)methyl)-1-(3-(methylsulfonyl)benzoyl)-D-prolinamide] | 0.5201 µM
